# Earlier results in patent publication US20020035459A1, “PHARMACOKINETIC-BASED DRUG DESIGN TOOL AND METHOD” (priority 1998, published 2002).
# Key:
# intestinal mucosa = details: permeability standards
# rabbit intestinal tissue = details: donor concentration per compound; for Pe Colon: rabbit colon; for Pe Duodenum: rabbit duodenum; for Pe Ileum: rabbit ileum; for Pe Jejunum: rabbit jejunum
# [1] = plasma kinetics, first order transfer
Structure (SMILES),Transport mechanism (intestinal mucosa),Pe Colon (rabbit intestinal tissue),Pe Duodenum (rabbit intestinal tissue),Pe Ileum (rabbit intestinal tissue),Pe Jejunum (rabbit intestinal tissue),k21 [1]
O=C[C@H](O)[C@@H](O)[C@H](O)[C@H](O)CO [D-glucose],Carrier-mediated Influx,9.28 ×10⁻⁶ cm/s,4.55 ×10⁻⁶ cm/s,14.5 ×10⁻⁶ cm/s,10.2 ×10⁻⁶ cm/s,–
"Nc1nc2c(ncn2COC(CO)CO)c(=O)[nH]1.[Na] [Gancyclovir, 9-(1,3-dihydroxy-2-propoxymethyl)guanine, monosodium salt]",–,–,–,–,–,0.670
C[C@]12CCC(=O)C=C1CC[C@@H]1[C@@H]2[C@@H](O)C[C@@]2(C)[C@H]1CC[C@]2(O)C(=O)CO [hydrocortisone],–,3.85 ×10⁻⁶ cm/s,0.3 ×10⁻⁶ cm/s,2.91 ×10⁻⁶ cm/s,1.31 ×10⁻⁶ cm/s,–
OC[C@@H](O)[C@@H](O)[C@H](O)[C@H](O)CO [mannitol],Passive Paracellular,5.53 ×10⁻⁶ cm/s,1.73 ×10⁻⁶ cm/s,4.02 ×10⁻⁶ cm/s,3.54 ×10⁻⁶ cm/s,–
